Measurements from patent US8741868B2, “Pharmaceutical composition including an HIF-2 alpha inhibitor as an active ingredient for preventing or treating arthritis” (Gwangju Institute of Science and Technology, priority 2010, dated 2014).

Tests used:
[1] = test system: HIF-2α; experiment: Expression of HIF-2α in mouse knee joint chondrocytes (RT-PCR, qRT-PCR, western blot); format: cell-based; conditions: for expression of HIF-2α transcripts and proteins: signal pathway inhibitor in chondrocytes; for expression of HIF-2α: mouse knee joint chondrocytes treated with the cytokine
Protocol: In order to induce pathological condition of cartilage degeneration in knee joint chondrocytes of mouse (Charles River, Japan), the cells were treated with interleukin 1β (IL-1β, Calbiochem, USA), IL-17 (R&D Systems, USA), TNF-α (R&D Systems, USA) or IL-21 (R&D Systems, USA), which are known as proinflammatory cytokines. The expression level of HIF-2α was investigated by RT-PCR, qRT-PCR and western blot. The mouse knee joint chondrocytes were isolated from the knee joint of 8-day-old ICR mouse (Charles River, Japan) and cultured in DMEM (Gibco, USA) containing 10% (v/v) fetal bovine serum (Gibco, USA), 50 μg/mL streptomycin (Sigma-Aldrich, USA) and 50 unit/mL penicillin (Sigma-Aldrich, USA). As a result, it was confirmed that whereas the expression of HIF-2α is increased by the proinflammatory cytokines, it is not affected by the anti-inflammatory cytokines IL-4 (R&D Systems, USA), IL-10 (R&D Systems, USA) and […] (R&D Systems, USA) (FIGS. 2a and 2b). IL-1β activates various signal transduction pathways in chondrocytes. Activation of NF-κβ and degradation of IκB protein were confirmed by western blot, and phosphorylation of extracellular signal-regulated kinase (ERK), c-Jun N-terminal kinase (JNK) and p38 MAP kinase from among mitogen-activated protein (MAP) kinase subtypes was confirmed by western blot (FIG. 2c). […] Accordingly, it was confirmed through RT-PCR and western blot (FIG. 2d) and quantification of HIF-2α transcripts by real-time RT-PCR (qRT-PCR) that NFkB and JNK regulate the expression of HIF-2α (FIG. 2e). It was confirmed through immunohistochemical staining that IκB and phosphorylated JNK (pJNK) activating NF-κβ are activated in larger amounts in human degenerative articular cartilage tissue (OA; osteoarthritis) as compared to normal cartilage (Normal).

[2] = test system: nitric oxide (NO) and prostaglandin E2 (PGE2); experiment: Production of nitric oxide (NO) and prostaglandin E2 (PGE2) in articular chondrocytes; format: cell-based; conditions: mouse knee joint chondrocytes
Text: (§1) Also, it was confirmed by qRT-PCR that the expression level of these transcripts is increased by Ad-HIF-2α and decreased by siRNA (FIG. 4a). The experimental procedure was the same as with MMP and ADAMT as described above. NOS2 and PTGS2 regulate cartilage degeneration by inducing production of nitric oxide (NO) and prostaglandin E2 (PGE2), respectively. The level of these metabolites was increased by Ad-HIF-2α and decreased by siRNA, as the expression level of PTGS2 and NOS2 transcripts (FIG. 4b).

[3] = test system: MAP kinase; experiment: MAP kinase phosphorylation in cytokine-treated chondrocytes; format: cell-based; conditions: cytokine-treated mouse knee articular chondrocytes, HIF-2α-siRNA
Text: According to a preferred embodiment, the siRNA of the present invention has nucleotide sequence included the nucleotide sequence as set forth in SEQ ID NO:1.

[4] = test system: cartilage degeneration-inducing factors MMP (1, 3, 9, 12, 13), ADAMTS4, PTGS2, NOS2; experiment: Expression of cartilage degeneration-inducing factors in chondrocytes after HIF-2α siRNA (RT-PCR, western blot, qRT-PCR); format: cell-based, mouse; conditions: for expression of the cartilage degeneration-inducing factors MMP (1, 3, 9, 12, 13), ADAMTS4, PTGS2, NOS2: siRNA 25, 50, 100 nM for 7 hours, then IL-1β medium 1.5 days, vs C-siRNA 100 nM
Protocol: Also, the expression of the cartilage degeneration-inducing factors was investigated after artificially inhibiting expression of HIF-2α using an siRNA specific for HIF-2α. More specifically, mouse knee joint chondrocytes were kept in a culture medium for 72 hours. After infecting with control (C-siRNA, 100 nM) or HIF-2α siRNA (25, 50, 100 nM) for 7 hours, the cells were cultured in a medium containing IL-1B for 1.5 days. The cells were recovered and cartilage degeneration-inducing factors were identified by RT-PCR and western blot. GAPDH and lamin B were used as loading control. Also, mRNA (FIG. 3a) and protein (FIG. 3b) levels of HIF-2α, MMP, ADAMTS, PTGS2 and NOS2 were measured by RT-PCR and western blot and their expression level was quantitated by qRT-PCR (FIGS. 3c and 3d). GAPDH and lamin B were used as loading control. Primers used in PCR are described in Table 1. As a result, it was confirmed that the expression of the cartilage degeneration-inducing factors MMP (1, 3, 9, 12, 13), ADAMTS4, PTGs2, NOS2, etc. is decreased as the expression of HIF-2α is inhibited.
as §1

With `CC(C)(C)c1ccc(S(=O)(=O)/C=C/C#N)cc1` [BAY 11-7085, reference compound] the “expression of HIF-2α transcripts and proteins” value [1] was “decreased remarkably”.

For `COc1cccc(-c2cc(=O)c3ccccc3o2)c1N` [PD98059, reference compound], the “expression of HIF-2α transcripts and proteins” value [1] was “inhibition effect was slightly weak”.

`C[S+]([O-])c1ccc(-c2nc(-c3ccncc3)c(-c3ccc(F)cc3)[nH]2)cc1` (stereo not shown) [SB203580, reference compound] was tested, and the “expression of HIF-2α transcripts and proteins” value [1] was “no effect”.

In the case of “HIF-2α siRNA: siRNA specific for HIF-2α; mouse sense 5′-AGUUGUUGUAGACUUUCACCUGGC-3′, antisense 5′-GGCCAGGUGAAAGUCUACAACAAC-3′ (SEQ ID NO 4, 5) (listed as RNA, chemistry not given here)”, the “level of metabolites nitric oxide (NO) and prostaglandin E2 (PGE2)” value [2] is reported as “decreased”, the MAP kinase phosphorylation [3] is reported as “significantly reduced” and the “expression level of PTGS2 and NOS2 transcripts (qRT-PCR)” value ([4]; mouse knee joint chondrocytes, siRNA) is reported as “decreased”. For the same molecule, the “expression of the cartilage degeneration-inducing factors MMP (1, 3, 9, 12, 13), ADAMTS4, PTGS2, NOS2” value [4] was “decreased” and the “expression of the cartilage degeneration-inducing factors MMP (1, 3, 9, 12, 13), ADAMTS4, PTGS2, NOS2” value ([4]; listed as HIF-2α-siRNA) was “markedly decreased”.

For “IL-17: proinflammatory cytokine (R&D Systems, USA)”, the “expression of HIF-2α” value [1] was “increased”.

In the case of “IL-18: proinflammatory cytokine named in the legend of FIG. 2”, the “expression of HIF-2α” value [1] is reported as “increased”.

For “IL-21: proinflammatory cytokine (R&D Systems, USA)”, the “expression of HIF-2α” value [1] was “increased”.

TNF-α was tested, and the “expression of HIF-2α” value [1] was “increased”.

For interleukin 1β [IL-1β], the “expression of HIF-2α” value [1] was “increased”.

B1: IL-12: anti-inflammatory cytokine (R&D Systems, USA) (protein, UniProt P29459 23-219; P29460 23-328, looked up)
Interleukin-12 subunit alpha: RNLPVATPDPGMFPCLHHSQNLLRAVSNMLQKARQTLEFYPCTSEEIDHEDITKDKTSTVEACLPLELTKNESCLNSRETSFITNGSCLASRKTSFMMALCLSSIYEDLKMYQVEFKTMNAKLLMDPKRQIFLDQNMLAVIDELMQALNFNSETVPQKSSLEEPDFYKTKIKLCILLHAFRIRAVTIDRVMSYLNAS
Interleukin-12 subunit beta: IWELKKDVYVVELDWYPDAPGEMVVLTCDTPEEDGITWTLDQSSEVLGSGKTLTIQVKEFGDAGQYTCHKGGEVLSHSLLLLHKKEDGIWSTDILKDQKEPKNKTFLRCEAKNYSGRFTCWWLTTISTDLTFSVKSSRGSSDPQGVTCGAATLSAERVRGDNKEYEYSVECQEDSACPAAEESLPIEVMVDAVHKLKYENYTSSFFIRDIIKPDPPKNLQLKPLKNSRQVEVSWEYPDTWSTPHSYFSLTFCVQVQGKSKREKKDRVFTDKTSATVICRKNASISVRAQDRYYSSSWSEWASVPCS
For B1, the “expression of HIF-2α” value [1] was “not affected”.

B2: IL-10: anti-inflammatory cytokine (R&D Systems, USA) (protein, UniProt P22301 19-178, looked up)
Interleukin-10: SPGQGTQSENSCTHFPGNLPNMLRDLRDAFSRVKTFFQMKDQLDNLLLKESLLEDFKGYLGCQALSEMIQFYLEEVMPQAENQDPDIKAHVNSLGENLKTLRLRLRRCHRFLPCENKSKAVEQVKNAFNKLQEKGIYKAMSEFDIFINYIEAYMTMKIRN
With B2 the “expression of HIF-2α” value [1] was “not affected”.

B3: IL-4: anti-inflammatory cytokine (R&D Systems, USA) (protein, UniProt P05112 25-153, looked up)
Interleukin-4: HKCDITLQEIIKTLNSLTEQKTLCTELTVTDIFAASKNTTEKETFCRAATVLRQFYSHHEKDTRCLGATAQQFHRHKQLIRFLKRLDRNLWGLAGLNSCPVKEANQSTLENFLERLKTIMREKYSKCSS
With B3 the “expression of HIF-2α” value [1] was “not affected”.
